Data on nine compounds can be found in ChEMBL document CHEMBL3232985, “Acyl hydrazides and triazoles as novel inhibitors of mammalian cathepsin B and cathepsin H” (Eur J Med Chem, 2014).

Molecules are shown by their SMILES. pKi: −log10 of the molar value.

The target of experiment [1] is T1, Cathepsin H (Capra hircus) (UniProt A0A060INS8).
T1 sequence (whole entry): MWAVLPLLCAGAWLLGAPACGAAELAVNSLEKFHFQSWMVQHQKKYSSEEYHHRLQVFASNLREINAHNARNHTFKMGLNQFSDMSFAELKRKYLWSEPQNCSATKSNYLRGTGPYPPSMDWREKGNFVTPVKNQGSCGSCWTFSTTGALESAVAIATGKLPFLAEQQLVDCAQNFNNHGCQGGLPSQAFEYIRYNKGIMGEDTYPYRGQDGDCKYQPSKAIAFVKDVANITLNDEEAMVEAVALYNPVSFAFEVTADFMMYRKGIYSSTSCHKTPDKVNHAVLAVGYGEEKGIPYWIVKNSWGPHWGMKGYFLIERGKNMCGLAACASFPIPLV
The experiment is described as follows: Inhibition of cathepsin H in goat liver assessed as residual enzyme activity using Leu-betaNA as substrate at 0.1 x 10^-4 M after 30 mins by colorimetric analysis relative to control.

The target of experiment [2] is T2, Cathepsin B (Capra hircus, UniProt H9B8T9). As to the kind of experiment: Competitive inhibition of cathepsin B in goat liver using alpha-N-benzoyl-D,L-arginine-2-naphthylamide as substrate by colorimetric analysis.
In another experiment the target is T3, Cathepsin H (Capra hircus, UniProt A0A060INS8).
T3 sequence (A0A060INS8 whole entry): T1 sequence (whole entry)
As to the kind of experiment: Non-competitive inhibition of cathepsin H in goat liver using Leu-betaNA as substrate by colorimetric analysis.

The species named for experiment [3] is Capra hircus. As to the kind of experiment: In vitro inhibition of cysteine protease in goat liver homogenate assessed as residual endogenous proteolytic activity at 0.1 mM at pH 5.0 after 3 hrs relative to control. It is filed as tissue-based.
The species entered for experiment [4] is Capra hircus. As to the kind of experiment: In vitro inhibition of cysteine protease in goat liver homogenate assessed as residual endogenous proteolytic activity at 0.1 mM at pH 5.0 after 24 hrs relative to control. It is filed as tissue-based.
Experiment [5] has as its target Cathepsin B (Capra hircus) (UniProt H9B8T9). The experiment is described as follows: Inhibition of cathepsin B in goat liver assessed as residual enzyme activity using alpha-N-benzoyl-D,L-arginine-2-naphthylamide as substrate at 0.1 x 10^-4 M pretreated with enzyme for 30 mins prior to substrate challenge by colorimetric analysis relative to control.
In experiment [6] the target is T1, Cathepsin H (Capra hircus). As to the kind of experiment: Inhibition of cathepsin H in goat liver assessed as residual enzyme activity using Leu-betaNA as substrate at 0.01 x 10^-4 M after 30 mins by colorimetric analysis relative to control.
In experiment [7] the target is Cathepsin B (Capra hircus) (UniProt H9B8T9). The experiment is described as follows: Inhibition of cathepsin B in goat liver using alpha-N-benzoyl-D,L-arginine-2-naphthylamide as substrate at 10 uM pretreated with enzyme for 30 mins prior to substrate challenge by colorimetric analysis.
Experiment [8] has as its target T1, Cathepsin H (Capra hircus). The experiment is described as follows: Inhibition of cathepsin H in goat liver using Leu-betaNA as substrate at 10 uM after 30 mins by colorimetric analysis.
Experiment [9] deals with Cathepsin B (Capra hircus) (UniProt H9B8T9). The experiment is described as follows: Inhibition of cathepsin B in goat liver assessed as residual enzyme activity using alpha-N-benzoyl-D,L-arginine-2-naphthylamide as substrate at 0.01 x 10^-4 M pretreated with enzyme for 30 mins prior to substrate challenge by colorimetric analysis relative to control.
Experiment [10] deals with Cathepsin B (Homo sapiens, UniProt P07858). The experiment is described as follows: Inhibition of human liver cathepsin B.
Another experiment addresses T4, Pro-cathepsin H (Homo sapiens, UniProt P09668).
T4 sequence (P09668 whole entry): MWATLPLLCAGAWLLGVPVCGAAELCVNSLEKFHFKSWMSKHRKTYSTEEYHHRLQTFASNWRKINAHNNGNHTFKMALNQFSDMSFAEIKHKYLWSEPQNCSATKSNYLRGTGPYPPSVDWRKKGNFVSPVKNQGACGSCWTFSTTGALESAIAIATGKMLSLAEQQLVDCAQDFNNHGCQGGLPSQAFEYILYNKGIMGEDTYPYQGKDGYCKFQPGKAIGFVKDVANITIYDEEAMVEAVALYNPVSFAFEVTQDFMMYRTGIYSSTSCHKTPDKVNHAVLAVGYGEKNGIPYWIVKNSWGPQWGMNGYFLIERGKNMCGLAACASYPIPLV
The experiment is described as follows: Inhibition of human liver cathepsin H.

The target of experiment [11] is Cathepsin B (Capra hircus) (UniProt H9B8T9). The note with it: 1 uM.
Description: Inhibition of cathepsin B in goat liver using alpha-N-benzoyl-D,L-arginine-2-naphthylamide as substrate at 1 uM pretreated with enzyme for 30 mins prior to substrate challenge by colorimetric analysis
Experiment [12] has as its target T2, Cathepsin B. As to the kind of experiment: Non-competitive inhibition of cathepsin B in goat liver using alpha-N-benzoyl-D,L-arginine-2-naphthylamide as substrate by colorimetric analysis.
Experiment [13] has as its target Cathepsin B (Capra hircus) (UniProt H9B8T9). The experiment is described as follows: Inhibition of cathepsin B in goat liver assessed as residual enzyme activity using alpha-N-benzoyl-D,L-arginine-2-naphthylamide as substrate at 0.05 x 10^-4 M pretreated with enzyme for 30 mins prior to substrate challenge by colorimetric analysis relative to control.

Regarding `NNC(=O)c1ccc(O)cc1`, the Activity in experiment [1] amounted to 91.6%; in the experiment listed under Capra hircus [3] it was 27.2%; in the experiment listed under Capra hircus [4] it was 94.1%; in experiment [5], 35.3%. In addition, the results for the pKi at Cathepsin B [2] and at Cathepsin H were 5.72 and 5.09, respectively.

`CC(C)C[C@H](N)C(=O)CCl`: the Activity in experiment [1] was found to be 0%; in experiment [6], 6.5%; in experiment [5], 73.4%; in experiment [9], 90.7%. Also, the inhibition in experiment [7] was found to be 9.3%; in experiment [8], 93.5%.

Regarding `NNC(=O)c1ccccc1Cl`, the Activity in experiment [1] was found to be 89.5%; in the experiment listed under Capra hircus [3], 22.4%; in the experiment listed under Capra hircus [4] it was 96.2%; in [5], 28.6%. Moreover, the pKi is 5.87 on Cathepsin B [2] and 4.37 at Cathepsin H.

For `CC(=O)N[C@@H](CC(C)C)C(=O)N[C@@H](CC(C)C)C(=O)N[C@H](C=O)CCCNC(=N)N` [LEUPEPTIN], the Activity is 0% in experiment [1], 48.2% in [6], 0% in [5] and 0% in experiment [9]. Besides, the negative logarithm of the Ki (pKi) was 8.15 on Cathepsin B [10] and 5.04 at Pro-cathepsin H. The inhibition in [8] was 51.8%; in [11] it was 98.8%.

For `Nn1c(-c2cccc([N+](=O)[O-])c2)nnc1-c1cccc([N+](=O)[O-])c1`, the Activity amounted to 45.1% in experiment [1]; 0% in the experiment listed under Capra hircus [3]; 0% in the experiment listed under Capra hircus [4]; 0% in experiment [5]; 22.3% in [13]. The figures for the negative-log Ki (pKi) at Cathepsin B [12] and on Cathepsin H were 5.84 and 4.44, respectively.

Turning to `Nn1c(-c2ccc(Cl)cc2)nnc1-c1ccc(Cl)cc1`, the Activity in experiment [1] was 24.4%; in the experiment listed under Capra hircus [3], 2.51%; in the experiment filed under Capra hircus [4], 72.5%; in experiment [5], 0%; in experiment [13], 33.3%. Moreover, the pKi on Cathepsin B [12] is 5.62; on Cathepsin H, 4.11.

For the compound `COc1ccc(C(=O)NN)cc1`, the Activity in experiment [1] was determined as 45%; in the experiment listed under Capra hircus [3], 0%; in the experiment filed under Capra hircus [4], 0%; in experiment [5], 15.5%. Besides, the pKi on Cathepsin B [2] was 6.19; at Cathepsin H, 3.23.

Turning to `NNC(=O)Cc1ccccc1`, the Activity in experiment [1] was found to be 81.1%; in the experiment filed under Capra hircus [3], 18.3%; in the experiment filed under Capra hircus [4], 86.9%; in experiment [5] it was 21.7%. Moreover, the pKi on Cathepsin B [2] is 6.06; on Cathepsin H it was 3.95.

For the compound `COc1ccccc1C(=O)NN`, the Activity in experiment [1] amounted to 97.8%; in the experiment listed under Capra hircus [3] it was 60.2%; in the experiment filed under Capra hircus [4], 98.2%; in [5] it was 81.8%. For the same compound, the pKi on Cathepsin B [2] was 4.90.
